The text below walks through data of ChEMBL document CHEMBL1140781, “4-Aminopyridine derivatives with anticholinesterase and antiamnesic activity” (Bioorg Med Chem Lett, 2008).

Assay [1] relates to Rattus norvegicus. Description: Antiamnesic activity in scopolamine-induced memory deficit rat assessed as training trial latency time at 100 mg/kg, ip. The class given is functional. Conditions: route intraperitoneal.
A further assay has as its target Cholinesterase (Homo sapiens, UniProt P06276). Description: Inhibition of butyrylcholinesterase.
Assay [2] deals with Rattus norvegicus. Description: Antiamnesic activity in scopolamine-induced memory deficit rat assessed as retention trial latency time at 100 mg/kg, ip after 24 hrs. Type of assay: functional. Conditions: route intraperitoneal.
Assay [3] relates to Rattus norvegicus. Briefly: Antiamnesic activity in scopolamine-induced memory deficit rat assessed as training trial latency time at 1.0 mg/kg, ip. The class given is functional. Conditions: route intraperitoneal.
Assay [4] deals with Rattus norvegicus. Briefly: Antiamnesic activity in scopolamine-induced memory deficit rat assessed as retention trial latency time at 1.0 mg/kg, ip after 24 hrs. Type of assay: functional. Conditions: route intraperitoneal.
Assay [5] has as its system Rattus norvegicus. Description: Antiamnesic activity in scopolamine-induced memory deficit rat assessed as retention trial latency time at 0.02 mg/kg, ip after 24 hrs. The class given is functional. The settings on record: route intraperitoneal.
In assay [6] the test system is Rattus norvegicus. Description: Antiamnesic activity in scopolamine-induced memory deficit rat assessed as training trial latency time at 0.02 mg/kg, ip. The settings on record: route intraperitoneal. Type of assay: functional.
The target of another assay is Acetylcholinesterase (Homo sapiens, UniProt P22303). Description: Inhibition of acetylcholinesterase.
Acetylcholinesterase, sequence (P22303 whole entry): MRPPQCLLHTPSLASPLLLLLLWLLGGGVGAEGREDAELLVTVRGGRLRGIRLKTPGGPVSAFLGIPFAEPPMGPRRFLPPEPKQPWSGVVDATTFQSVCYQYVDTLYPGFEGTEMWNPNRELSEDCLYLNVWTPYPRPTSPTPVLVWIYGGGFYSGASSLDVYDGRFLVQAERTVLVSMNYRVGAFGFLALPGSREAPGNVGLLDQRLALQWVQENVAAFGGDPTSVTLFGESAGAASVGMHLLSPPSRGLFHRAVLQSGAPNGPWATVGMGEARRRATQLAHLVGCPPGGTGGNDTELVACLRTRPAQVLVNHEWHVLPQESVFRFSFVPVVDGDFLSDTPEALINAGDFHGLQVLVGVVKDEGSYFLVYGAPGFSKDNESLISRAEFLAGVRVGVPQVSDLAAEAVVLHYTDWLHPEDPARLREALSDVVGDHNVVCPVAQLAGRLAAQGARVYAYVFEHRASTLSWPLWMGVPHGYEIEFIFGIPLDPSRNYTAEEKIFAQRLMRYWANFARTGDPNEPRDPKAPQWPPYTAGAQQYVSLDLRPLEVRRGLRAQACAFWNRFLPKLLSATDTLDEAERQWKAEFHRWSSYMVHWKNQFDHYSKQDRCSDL
Assay [7] concerns Rattus norvegicus. Description: Antiamnesic activity in scopolamine-induced memory deficit rat assessed as training trial latency time at 2.4 mg/kg, ip. Conditions: route intraperitoneal. Type of assay: functional.
Assay [8] deals with Rattus norvegicus. Briefly: Antiamnesic activity in scopolamine-induced memory deficit rat assessed as retention trial latency time at 0.024 mg/kg, ip after 24 hrs. The class given is functional. The settings on record: route intraperitoneal.
The test system of assay [9] is Rattus norvegicus. Description: Antiamnesic activity in scopolamine-induced memory deficit rat assessed as training trial time at 0.024 mg/kg, ip. The class given is functional. The settings on record: route intraperitoneal.
The test system of assay [10] is Rattus norvegicus. Description: Antiamnesic activity in scopolamine-induced memory deficit rat assessed as retention trial latency time at 0.24 mg/kg, ip after 24 hrs. Type of assay: functional. The settings on record: route intraperitoneal.
Assay [11] concerns Rattus norvegicus. Description: Antiamnesic activity in scopolamine-induced memory deficit rat assessed as training trial latency time at 0.24 mg/kg, ip. The settings on record: route intraperitoneal. Type of assay: functional.
In assay [12] the test system is Rattus norvegicus. Description: Antiamnesic activity in scopolamine-induced memory deficit rat assessed as training trial latency time at 1.2 mg/kg, ip. Conditions: route intraperitoneal. The class given is functional.
Assay [13] concerns Rattus norvegicus. Briefly: Antiamnesic activity in scopolamine-induced memory deficit rat assessed as retention trial latency time at 1.2 mg/kg, ip after 24 hrs. Type of assay: functional. Conditions: route intraperitoneal.
Assay [14] deals with Rattus norvegicus. Description: Antiamnesic activity in scopolamine-induced memory deficit rat assessed as retention trial latency time at 2.4 mg/kg, ip after 24 hrs. The settings on record: route intraperitoneal. The class given is functional.
Assay [15] has as its system Rattus norvegicus. Description: Antiamnesic activity in scopolamine-induced memory deficit rat assessed as retention trial latency time at 34.73 mg/kg, ip after 24 hrs. Type of assay: functional. Conditions: route intraperitoneal.
Assay [16] deals with Rattus norvegicus. Description: Antiamnesic activity in scopolamine-induced memory deficit rat assessed as training trial latency time at 17.37 mg/kg, ip. The class given is functional. Conditions: route intraperitoneal.
Assay [17] has as its system Rattus norvegicus. Description: Antiamnesic activity in scopolamine-induced memory deficit rat assessed as training trial latency time at 34.73 mg/kg, ip. Type of assay: functional. The settings on record: route intraperitoneal.
Assay [18] concerns Rattus norvegicus. Briefly: Antiamnesic activity in scopolamine-induced memory deficit rat assessed as retention trial latency time at 17.37 mg/kg, ip after 24 hrs. Conditions: route intraperitoneal. The class given is functional.
Assay [19] relates to Rattus norvegicus. Briefly: Antiamnesic activity in scopolamine-induced memory deficit rat assessed as training trial latency time at 0.5 mg/kg, ip. The class given is functional. Conditions: route intraperitoneal.
In assay [20] the test system is Rattus norvegicus. Briefly: Antiamnesic activity in scopolamine-induced memory deficit rat assessed as training trial latency time at 0.01 mg/kg, ip. Type of assay: functional. Conditions: route intraperitoneal.
For assay [21], the system named is Rattus norvegicus. Briefly: Antiamnesic activity in scopolamine-induced memory deficit rat assessed as training trial latency time at 50 mg/kg, ip. Type of assay: functional. Conditions: route intraperitoneal.
In assay [22] the test system is Rattus norvegicus. Briefly: Antiamnesic activity in scopolamine-induced memory deficit rat assessed as retention trial latency time at 0.01 mg/kg, ip after 24 hrs. The settings on record: route intraperitoneal. Type of assay: functional.
In assay [23] the test system is Rattus norvegicus. Description: Antiamnesic activity in scopolamine-induced memory deficit rat assessed as retention trial latency time at 50 mg/kg, ip after 24 hrs. The class given is functional. Conditions: route intraperitoneal.
Assay [24] relates to Rattus norvegicus. Description: Antiamnesic activity in scopolamine-induced memory deficit rat assessed as retention trial latency time at 0.5 mg/kg, ip after 24 hrs. Type of assay: functional. The settings on record: route intraperitoneal.
Assay [25] concerns Rattus norvegicus. Briefly: Antiamnesic activity in scopolamine-induced memory deficit rat assessed as retention trial latency time at 0.001 mg/kg, ip after 24 hrs. The class given is functional. Conditions: route intraperitoneal.
For assay [26], the system named is Rattus norvegicus. Briefly: Antiamnesic activity in scopolamine-induced memory deficit rat assessed as training trial latency time at 0.005 mg/kg, ip. Conditions: route intraperitoneal. Type of assay: functional.
For assay [27], the system named is Rattus norvegicus. Description: Antiamnesic activity in scopolamine-induced memory deficit rat assessed as training trial latency time at 0.001 mg/kg, ip. Type of assay: functional. The settings on record: route intraperitoneal.
Assay [28] deals with Rattus norvegicus. Description: Antiamnesic activity in scopolamine-induced memory deficit rat assessed as retention trial latency time at 0.1 mg/kg, ip after 24 hrs. The class given is functional. Conditions: route intraperitoneal.
In assay [29] the test system is Rattus norvegicus. Description: Antiamnesic activity in scopolamine-induced memory deficit rat assessed as training trial latency time at 0.1 mg/kg, ip. The class given is functional. Conditions: route intraperitoneal.
Assay [30] has as its system Rattus norvegicus. Description: Antiamnesic activity in scopolamine-induced memory deficit rat assessed as retention trial latency time at 0.005 mg/kg, ip after 24 hrs. The class given is functional. The settings on record: route intraperitoneal.

Cholinesterase, sequence (P06276 whole entry): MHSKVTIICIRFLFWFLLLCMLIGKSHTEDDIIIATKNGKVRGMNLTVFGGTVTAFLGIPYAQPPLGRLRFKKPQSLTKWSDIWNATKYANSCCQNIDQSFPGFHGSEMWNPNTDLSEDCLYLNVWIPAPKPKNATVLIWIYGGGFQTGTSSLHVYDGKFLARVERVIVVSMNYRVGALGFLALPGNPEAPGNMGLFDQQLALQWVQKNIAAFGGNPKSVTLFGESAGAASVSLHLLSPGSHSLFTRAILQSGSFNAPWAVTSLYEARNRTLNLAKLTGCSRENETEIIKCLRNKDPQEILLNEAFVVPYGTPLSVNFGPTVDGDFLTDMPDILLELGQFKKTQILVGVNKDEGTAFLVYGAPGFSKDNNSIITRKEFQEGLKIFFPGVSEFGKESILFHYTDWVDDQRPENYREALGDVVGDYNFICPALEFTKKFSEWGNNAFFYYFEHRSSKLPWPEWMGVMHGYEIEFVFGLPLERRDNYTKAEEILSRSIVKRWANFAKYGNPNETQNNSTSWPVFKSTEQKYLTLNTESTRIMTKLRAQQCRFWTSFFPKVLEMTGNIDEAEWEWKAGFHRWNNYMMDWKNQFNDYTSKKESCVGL

For `C[N+](C)(C)CCOC(=O)Nc1ccncc1.[I-]`, the Time in the assay with Rattus norvegicus [1] turned out to be 30.6 s; with Rattus norvegicus [2], 21.3 s; in the assay on Rattus norvegicus [3] it was 21.4 s; in the assay with Rattus norvegicus [4], 21 s; in the assay on Rattus norvegicus [5] it was 40.4 s; in the assay on Rattus norvegicus [6], 37.3 s. For the same compound, the Ki (usually the equilibrium dissociation constant of an inhibitor or competing ligand from its target) on Cholinesterase came to 754 µM; at Acetylcholinesterase it was 159 µM.
As for `C[N+](C)(C)CCOC(=O)Nc1ccncc1Br`, the values for the inhibitory constant (Ki) on Cholinesterase and at Acetylcholinesterase were 274 µM and 116 µM, respectively.
Consider `C[N+](C)(C)CCOC(=O)Nc1cc(Cl)nc(Cl)c1.[I-]`, for which the Ki on Cholinesterase turned out to be 19.5 µM; on Acetylcholinesterase, 64.4 µM. Besides, the Time in the assay with Rattus norvegicus [7] came out at 19 s; in the assay with Rattus norvegicus [8], 36.8 s; with Rattus norvegicus [9], 14.4 s; in the assay on Rattus norvegicus [10], 56.9 s; in the assay on Rattus norvegicus [11], 19.7 s; in the assay on Rattus norvegicus [12], 21.4 s. The Time was 92.9 s with Rattus norvegicus [13] and 32.3 s in the assay on Rattus norvegicus [14].
With `CC(C)(C)C(=O)OCC[N+](C)(C)C.CC(C)(C)C(=O)[O-]`, the Time is 45.8 s in the assay with Rattus norvegicus [15], 38.8 s in the assay with Rattus norvegicus [16], 14.5 s in the assay with Rattus norvegicus [17] and 36.8 s in the assay on Rattus norvegicus [18].
In the case of `CN(C)CCOC(=O)Nc1ccnc(Cl)c1`, the Ki came to 380 µM at Cholinesterase and 208 µM at Acetylcholinesterase.
As to `CN(C)CCOC(=O)Nc1ccncc1Br`, the results for the inhibitory constant (Ki) at Cholinesterase and at Acetylcholinesterase were 273 µM and 316 µM, respectively.
`CN(C)CCOC(=O)Nc1ccncc1`: the Time with Rattus norvegicus [19] was determined as 43.6 s; with Rattus norvegicus [20], 20.3 s; in the assay with Rattus norvegicus [21] it was 25.5 s; with Rattus norvegicus [22], 12.1 s; in the assay on Rattus norvegicus [23], 39.6 s; with Rattus norvegicus [24], 49.7 s. In addition, the figures for the Ki at Cholinesterase and at Acetylcholinesterase were 20.4 µM and 314 µM, respectively.
Consider `C[N+](C)(C)CCOC(=O)Nc1ccnc(Cl)c1`, for which the results for the Ki on Cholinesterase and on Acetylcholinesterase were 161 µM and 151 µM, respectively.
With `CN(C)CCOC(=O)Nc1cc(Cl)nc(Cl)c1`, the Ki at Cholinesterase was 174 µM; at Acetylcholinesterase it was 140 µM.
As to `Nc1ccncc1` [DALFAMPRIDINE], the Time is 38.5 s in the assay with Rattus norvegicus [25]; 22.1 s in the assay with Rattus norvegicus [26]; 46.3 s in the assay on Rattus norvegicus [20]; 20.8 s in the assay with Rattus norvegicus [27]; 33.6 s in the assay on Rattus norvegicus [28]; 63.5 s in the assay with Rattus norvegicus [22]. Further, the results for the Time in the assay with Rattus norvegicus [29] and with Rattus norvegicus [30] were 20.3 s and 92.3 s, respectively.
